ChEMBL document CHEMBL1144330, “Novel pyrazinone mono-amides as potent and reversible caspase-3 inhibitors” (Bioorg Med Chem Lett, 2005)

Legend:
[1] = target: T1, Caspase-1 (Homo sapiens, UniProt P29466); experiment: Inhibitory concentration against recombinant human caspase-1 in neuronal precursor (NT2) cells
T1 sequence (P29466 whole entry): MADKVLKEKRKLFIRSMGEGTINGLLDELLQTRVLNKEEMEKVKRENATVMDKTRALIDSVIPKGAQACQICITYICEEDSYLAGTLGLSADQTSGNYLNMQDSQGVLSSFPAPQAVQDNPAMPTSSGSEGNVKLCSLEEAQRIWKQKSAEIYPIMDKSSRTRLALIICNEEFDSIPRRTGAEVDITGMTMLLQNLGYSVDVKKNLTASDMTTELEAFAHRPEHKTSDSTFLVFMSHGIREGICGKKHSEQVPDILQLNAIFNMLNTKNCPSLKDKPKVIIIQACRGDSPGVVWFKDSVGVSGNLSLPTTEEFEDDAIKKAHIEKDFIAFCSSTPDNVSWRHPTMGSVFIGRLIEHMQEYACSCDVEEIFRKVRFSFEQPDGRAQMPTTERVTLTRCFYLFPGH

[2] = target: T2, Caspase-7 (Homo sapiens, UniProt P55210); experiment: Inhibitory concentration against recombinant human caspase-7 […]
T2 sequence (P55210 whole entry): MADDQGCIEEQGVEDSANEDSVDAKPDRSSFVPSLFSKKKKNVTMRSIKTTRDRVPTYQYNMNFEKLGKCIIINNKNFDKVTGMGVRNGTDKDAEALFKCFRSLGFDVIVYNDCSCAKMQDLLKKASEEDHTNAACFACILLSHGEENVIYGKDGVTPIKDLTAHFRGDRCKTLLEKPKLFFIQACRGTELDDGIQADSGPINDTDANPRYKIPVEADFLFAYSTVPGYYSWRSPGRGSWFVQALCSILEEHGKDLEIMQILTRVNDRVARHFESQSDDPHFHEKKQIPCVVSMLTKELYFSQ

[3] = test system: NT2; experiment: Inhibitory concentration against camptothecin induced apoptosis in neuronal precursor (NT2) whole cells; type: functional, cell-based; details: Homo sapiens
[4] = target: T3, Caspase-3 (Homo sapiens, UniProt P42574); experiment: Inhibitory concentration against recombinant human caspase-3 in neuronal precursor (NT2) cells
T3 sequence (P42574 whole entry): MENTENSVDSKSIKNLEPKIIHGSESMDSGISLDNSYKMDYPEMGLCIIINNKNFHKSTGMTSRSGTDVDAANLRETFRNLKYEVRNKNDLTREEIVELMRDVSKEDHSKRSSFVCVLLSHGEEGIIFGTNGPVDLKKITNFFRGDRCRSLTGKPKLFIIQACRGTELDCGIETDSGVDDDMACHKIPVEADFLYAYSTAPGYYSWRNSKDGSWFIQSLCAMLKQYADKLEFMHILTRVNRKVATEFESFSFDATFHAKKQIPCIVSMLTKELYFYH

[5] = target: Caspase-8 (Homo sapiens, UniProt Q14790); experiment: Inhibitory concentration against recombinant human caspase-8 […]
Caspase-8, sequence (Q14790 217-374 limits assumed): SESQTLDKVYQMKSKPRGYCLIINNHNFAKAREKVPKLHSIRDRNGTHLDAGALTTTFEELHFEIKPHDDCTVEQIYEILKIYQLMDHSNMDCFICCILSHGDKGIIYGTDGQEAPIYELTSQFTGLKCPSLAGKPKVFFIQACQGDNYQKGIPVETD
Caspase-8, sequence (Q14790 385-479 limits assumed): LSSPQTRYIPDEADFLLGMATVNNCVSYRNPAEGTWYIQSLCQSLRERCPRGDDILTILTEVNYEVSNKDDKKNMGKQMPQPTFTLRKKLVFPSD

IC50 [1] [nM]	IC50 [2] [nM]	IC50 [3] [nM]	IC50 [4] [nM]	IC50 [5] [nM]	Compound
13	83	1250	13	7380	CCC(C(=O)N[C@@H](CC(=O)O)C(=O)CNCN1CCc2ccccc2C1)n1ccnc(NCc2nonc2C)c1=O (stereo not given in full)
1900	> 10000	50000	190	9920	CCC(C(=O)N[C@@H](CC(=O)O)C(=O)CSCc1ccccc1)n1ccnc(NCCCN2CCCC2=O)c1=O (stereo not given in full)
67	42	21	6	6480	CCCCCCN(C)CNCC(=O)[C@H](CC(=O)O)NC(=O)C(CC)n1cc(C(C)(C)C)nc(NCc2nonc2C)c1=O (stereo not given in full)
31	130	300	15	> 10000	CCCCN(C)CNCC(=O)[C@H](CC(=O)O)NC(=O)C(CC)n1ccnc(NCc2nonc2C)c1=O (stereo not given in full)
230	2540	6410	51	3300	CCC(C(=O)N[C@@H](CC(=O)O)C(=O)CSCc1ccccc1)n1ccnc(NCc2cc(C)no2)c1=O (stereo not given in full)
25	600	78	6	9540	CCCCCCN(C)CNCC(=O)[C@H](CC(=O)O)NC(=O)C(CC)n1cc(CC)nc(NCc2nonc2C)c1=O (stereo not given in full)
890	310	2640	42	> 10000	CCC(C(=O)N[C@@H](CC(=O)O)C(=O)CNCN(C)C)n1ccnc(NCc2nonc2C)c1=O (stereo not given in full)
110	87	25	16	> 10000	CCCCCCN(C)CNCC(=O)[C@H](CC(=O)O)NC(=O)C(CC)n1cc(C(C)(CC)CC)nc(NCc2nonc2C)c1=O (stereo not given in full)
310	8	30000	0.8	16	CC(=O)N[C@@H](CC(=O)O)C(=O)N[C@@H](CCC(=O)O)C(=O)N[C@H](C(=O)N[C@@H](CC(=O)O)C(=O)CCCc1ccccc1)C(C)C
28	140	130	11	> 10000	CCCCCCN(C)CNCC(=O)[C@H](CC(=O)O)NC(=O)C(CC)n1ccnc(NCc2nonc2C)c1=O (stereo not given in full)
920	9730	> 10000	71	7650	CCC(C(=O)N[C@@H](CC(=O)O)C(=O)CSCc1ccccc1)n1ccnc(NCCCOC)c1=O (stereo not given in full)
47	840	1620	56	6020	CCC(C(=O)N[C@@H](CC(=O)O)C(=O)CNCN1CCC(Cc2ccccc2)CC1)n1ccnc(NCc2nonc2C)c1=O (stereo not given in full)
110	36	2.7	0.1	5950	CCCCCN(C)CNCC(=O)[C@H](CC(=O)O)NC(=O)C(CC)n1cc(C(C)(C)C)nc(NCc2nonc2C)c1=O (stereo not given in full)
1230	480	5120	64	10000	CCC(C(=O)N[C@@H](CC(=O)O)C(C)=O)n1cc(C(C)(C)C)nc(NCc2nonc2C)c1=O (stereo not given in full)
220	2420	37900	88	2730	CCC(C(=O)N[C@@H](CC(=O)O)C(=O)CSCc1ccccc1)n1ccnc(Nc2ccc3sc(C)nc3c2)c1=O (stereo not given in full)
1700	2600	7100	53	> 10000	CCC(C(=O)N[C@@H](CC(=O)O)C(=O)CSCc1ccccc1)n1ccnc(NCCCc2nc(C)no2)c1=O (stereo not given in full)
900	> 10000	15300	80	9100	CCC(C(=O)N[C@@H](CC(=O)O)C(=O)CSCc1ccccc1)n1ccnc(NCCc2nc(C)no2)c1=O (stereo not given in full)
990	> 10000	7090	82	2260	CCC(C(=O)N[C@@H](CC(=O)O)C(=O)CSCc1ccccc1)n1ccnc(NCCn2cccn2)c1=O (stereo not given in full)
1110	> 10000	6790	140	> 10000	CCC(C(=O)N[C@@H](CC(=O)O)C(=O)CSCc1ccccc1)n1ccnc(NCCOC)c1=O (stereo not given in full)
130	1130	3080	26	1750	CCC(C(=O)N[C@@H](CC(=O)O)C(=O)CSCc1ccccc1)n1ccnc(NCc2nccs2)c1=O (stereo not given in full)
670	4680	5330	48	6420	CCC(C(=O)N[C@@H](CC(=O)O)C(=O)CSCc1ccccc1)n1ccnc(NCc2nc(C)no2)c1=O (stereo not given in full)
1600	120	1000	5	490	COc1ccc(S(C)(=O)=O)cc1CC(=O)N[C@H](C(=O)N[C@@H](CC(=O)O)C(=O)CSCc1ccccc1)C(C)C
65	810	4560	36	2090	CCC(C(=O)N[C@@H](CC(=O)O)C(=O)CSCc1ccccc1)n1ccnc(NCc2cccs2)c1=O (stereo not given in full)
1750	1010	3990	100	> 10000	CCOCN(C)CNCC(=O)[C@H](CC(=O)O)NC(=O)C(CC)n1ccnc(NCc2nonc2C)c1=O (stereo not given in full)
63	65	4.8	13	9040	CCCCCCN(C)CNCC(=O)[C@H](CC(=O)O)NC(=O)C(CC)n1cc(C(C)C)nc(NCc2nonc2C)c1=O (stereo not given in full)
1930	9710	5740	18	> 10000	CCC(C(=O)N[C@@H](CC(=O)O)C(=O)CSCc1ccccc1)n1ccnc(NCCn2cncn2)c1=O (stereo not given in full)
190	490	3420	12	6590	CCC(C(=O)N[C@@H](CC(=O)O)C(=O)CSCc1ccccc1)n1ccnc(NCc2cncs2)c1=O (stereo not given in full)
1080	> 10000	8060	72	7560	CCC(C(=O)N[C@@H](CC(=O)O)C(=O)CSCc1ccccc1)n1ccnc(NCc2noc(C)n2)c1=O (stereo not given in full)
730	540	8620	110	> 10000	CCC(C(=O)N[C@@H](CC(=O)O)C(=O)CNCN1CCOCC1)n1cc(C(C)(C)C)nc(NCc2nonc2C)c1=O (stereo not given in full)
400	5170	8560	46	2900	CCC(C(=O)N[C@@H](CC(=O)O)C(=O)CSCc1ccccc1)n1ccnc(NCc2ccon2)c1=O (stereo not given in full)
